Measurements as given in patent publication US4083953A, “Pharmaceutical composition containing 5:6-benzo-alpha-pyrone derivatives and method of use thereof” (Carlo Erba, S.p.A., priority 1973, dated 1978).
Read-outs that look alike come from different tables or passages of the source.

Key:
Format in all cases: in vivo
stress-induced ulcers = assay: inhibition of stress-induced ulcers in rats (restraint in a water bath at 25° for 40 minutes); settings: 50 mg/kg i.v.
[1] = test system: passive cutaneous anaphylaxis (PCA); assay: passive cutaneous anaphylaxis (PCA) test in rats, oral; settings: Rattus norvegicus, 50 mg/kg p.o., read-out: % Inhibition In Comparison With Controls
Source text: They can be therefore used in prevention and treatment of bronchial asthma, allergic rhinitis, hay fever, urticaria and dermatosis.

[2] = test system: bronchoconstrictive effect of 5-HT; assay: antagonism of the bronchoconstrictive effect of 5-HT in rats; settings: 3 mg/kg i.v.
[3] = test system: airway resistance and pulmonary compliance; assay: airway resistance and pulmonary compliance in rats (technique of Palecek et al.); settings: dosage as low as 3 mg/kg i.v.
Source text: In addition to anti-allergic activity, the compounds of this invention are effective in decreasing the airway resistance and in increasing pulmonary compliance, and can be therefore used for the treatment of respiratory insufficiency, such as, for example, acute pulmonary insufficiency, as shown by the results obtained in rats using the technique described by Palecek F., Palecekova M., and Aviado D. M. (Arch. Environ. Health, 1967, 15:332-342).

[4] = test system: bronchoconstrictive effect of compound 48/80 (histamine releasing drug); assay: antagonism of the bronchoconstrictive effect of compound 48/80 in rats; settings: 3 mg/kg i.v.

CC(C)Oc1ccccc1-c1cc(=O)c2cc(C(=O)[O-])ccc2o1.[Na+] [6-carboxy-2'-isopropoxy-flavone sodium salt]
inhibition of the stress-induced ulcers (stress-induced ulcers): 45%

O=C(O)c1cc(=O)c2c(OCC(O)COc3cccc4oc(C(=O)O)cc(=O)c34)cccc2o1 [DSCG, disodium cromoglycate]
inhibition in vivo at 50 mg/kg ([1]; 0.25 h, 15 min. pretreatment): 6%
inhibition in vivo at 50 mg/kg ([1]; 0.5 h, 30 min. pretreatment): 5.5%
inhibition in vivo at 50 mg/kg ([1]; 1 h, 60 min. pretreatment): 3.2%
inhibition in vivo at 50 mg/kg ([1]; 2 h, 120 min. pretreatment): 2.5%

O=C(O)c1ccc2oc(-c3ccc(O)cc3)cc(=O)c2c1 [6-carboxy-4'-hydroxy-flavone]
inhibition in vivo at 50 mg/kg ([1]; 0.25 h, 15 min. pretreatment): 9.2%
inhibition in vivo at 50 mg/kg ([1]; 0.5 h, 30 min. pretreatment): 4%
inhibition in vivo at 50 mg/kg ([1]; 1 h, 60 min. pretreatment): 3.7%
inhibition in vivo at 50 mg/kg ([1]; 2 h, 120 min. pretreatment): 3.9%

O=C(O)c1ccc2oc(C=Cc3ccccc3)cc(=O)c2c1 [6-carboxy-2-(β-phenyl-vinyl)-chromone]
inhibition in vivo at 50 mg/kg ([1]; 0.25 h, 15 min. pretreatment): 69.9%
inhibition in vivo at 50 mg/kg ([1]; 0.5 h, 30 min. pretreatment): 45.8%
inhibition in vivo at 50 mg/kg ([1]; 1 h, 60 min. pretreatment): 19.6%
inhibition in vivo at 50 mg/kg ([1]; 2 h, 120 min. pretreatment): 16.6%

O=C(O)c1ccc2oc(-c3cccc(Cl)c3)cc(=O)c2c1 [6-carboxy-3'-chloro-flavone]
inhibition in vivo at 50 mg/kg ([1]; 0.25 h, 15 min. pretreatment): 31%
inhibition in vivo at 50 mg/kg ([1]; 0.5 h, 30 min. pretreatment): 22.3%
inhibition in vivo at 50 mg/kg ([1]; 1 h, 60 min. pretreatment): 5.9%
inhibition in vivo at 50 mg/kg ([1]; 2 h, 120 min. pretreatment): 2.1%

O=C(O)c1ccc2oc(-c3cnccn3)cc(=O)c2c1 [6-carboxy-2-(2'-pyrazinyl)-chromone]
inhibition in vivo at 50 mg/kg ([1]; 0.25 h, 15 min. pretreatment): 87%
inhibition in vivo at 50 mg/kg ([1]; 0.5 h, 30 min. pretreatment): 47.3%
inhibition in vivo at 50 mg/kg ([1]; 1 h, 60 min. pretreatment): 31.9%
inhibition in vivo at 50 mg/kg ([1]; 2 h, 120 min. pretreatment): 26.3%

CC(C)Oc1ccccc1-c1cc(=O)c2cc(C(=O)O)ccc2o1 [6-carboxy-2'-isopropoxy-flavone]
antagonizing the bronchoconstrictive effect of 5-HT [2]: 50%
effect on airway resistance [3]: lower the airway resistance
effect on pulmonary compliance [3]: increase pulmonary compliance
inhibition in vivo at 50 mg/kg ([1]; 0.25 h, 15 min. pretreatment): 82.9%
inhibition in vivo at 50 mg/kg ([1]; 0.5 h, 30 min. pretreatment): 39.5%
inhibition in vivo at 50 mg/kg ([1]; 1 h, 60 min. pretreatment): 27.6%
inhibition in vivo at 50 mg/kg ([1]; 2 h, 120 min. pretreatment): 24.4%
antagonizing the bronchoconstrictive effect of compound 48/80 [4]: 50%

O=C(O)c1ccc2oc(-c3ccccc3)cc(=O)c2c1 [6-carboxy-flavone]
inhibition in vivo at 50 mg/kg ([1]; 0.25 h, 15 min. pretreatment): 32.1%
inhibition in vivo at 50 mg/kg ([1]; 0.5 h, 30 min. pretreatment): 23.5%
inhibition in vivo at 50 mg/kg ([1]; 1 h, 60 min. pretreatment): 6.8%
inhibition in vivo at 50 mg/kg ([1]; 2 h, 120 min. pretreatment): 3.4%

O=C(O)c1ccc2oc3ccc(OCCO)cc3c(=O)c2c1 [AH 7725, 2-carboxy-7-hydroxyethoxy-xanthone]
inhibition in vivo at 50 mg/kg ([1]; 0.25 h, 15 min. pretreatment): 42.6%
inhibition in vivo at 50 mg/kg ([1]; 0.5 h, 30 min. pretreatment): 14.4%
inhibition in vivo at 50 mg/kg ([1]; 1 h, 60 min. pretreatment): 13.3%
inhibition in vivo at 50 mg/kg ([1]; 2 h, 120 min. pretreatment): 3.8%
